Results on 16 compounds are retold here after ChEMBL document CHEMBL1140629, “2D QSAR studies on thyroid hormone receptor ligands” (Bioorg Med Chem, 2007).

The target in assay [1] is T1, Thyroid hormone receptor alpha (Homo sapiens, UniProt P10827).
T1 sequence (P10827 whole entry): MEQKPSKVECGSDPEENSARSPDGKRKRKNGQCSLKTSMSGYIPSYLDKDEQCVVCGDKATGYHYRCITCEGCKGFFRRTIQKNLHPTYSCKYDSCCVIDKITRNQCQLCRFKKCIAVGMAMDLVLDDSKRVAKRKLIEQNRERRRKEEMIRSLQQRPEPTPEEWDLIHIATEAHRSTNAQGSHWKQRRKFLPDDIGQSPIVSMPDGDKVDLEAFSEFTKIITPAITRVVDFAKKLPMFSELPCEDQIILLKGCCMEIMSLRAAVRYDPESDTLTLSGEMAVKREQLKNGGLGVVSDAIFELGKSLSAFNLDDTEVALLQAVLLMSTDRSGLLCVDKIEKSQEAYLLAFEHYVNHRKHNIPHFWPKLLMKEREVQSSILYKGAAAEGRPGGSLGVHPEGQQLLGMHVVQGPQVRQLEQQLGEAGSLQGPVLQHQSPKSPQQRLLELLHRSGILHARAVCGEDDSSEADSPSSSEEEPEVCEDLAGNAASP

In assay [2] the target is T2, Thyroid hormone receptor beta (Homo sapiens, UniProt P10828).
T2 sequence (P10828 whole entry): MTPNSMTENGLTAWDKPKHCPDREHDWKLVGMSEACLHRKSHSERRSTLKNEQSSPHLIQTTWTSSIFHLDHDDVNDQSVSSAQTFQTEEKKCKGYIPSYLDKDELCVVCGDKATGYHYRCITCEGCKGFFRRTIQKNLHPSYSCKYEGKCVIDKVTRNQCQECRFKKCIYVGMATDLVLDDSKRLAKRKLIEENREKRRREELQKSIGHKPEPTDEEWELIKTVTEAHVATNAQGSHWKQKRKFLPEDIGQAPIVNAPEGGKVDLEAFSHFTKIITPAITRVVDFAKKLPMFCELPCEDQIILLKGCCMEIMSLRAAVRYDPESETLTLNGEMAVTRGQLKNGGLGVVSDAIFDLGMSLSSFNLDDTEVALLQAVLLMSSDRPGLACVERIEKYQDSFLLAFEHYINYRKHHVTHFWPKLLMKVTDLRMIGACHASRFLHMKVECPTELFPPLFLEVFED

`O=C(O)Cc1cc(Br)c(Oc2ccc(O)c(C(=O)NCc3ccccc3)c2)c(Br)c1`: the midpoint of inhibition in assay [1], the IC50, lay at 85.1 nM. In turn, `COc1cccc(CCNC(=O)c2cc(Oc3c(Br)cc(CC(=O)O)cc3Br)ccc2O)c1` showed a 50% inhibitory concentration (IC50) in assay [2] of 4.9 nM.

In turn, `O=C(O)Cc1cc(Br)c(Oc2ccc(O)c(Oc3ccc(O)cc3)c2)c(Br)c1` showed an IC50 in assay [1] of 240 nM. Compound `CC(C)c1cc(Oc2c(Cl)cc3[nH]c(C(=O)O)cc(=O)c3c2Cl)ccc1O` showed a half-inhibitory concentration (IC50) in assay [2] of 15.1 nM. The compound `O=C(O)Cc1cc(Br)c(Oc2ccc(O)c(C(=O)Nc3ccccc3)c2)c(Br)c1` gave an IC50 in assay [2] of 35.5 nM. For the compound `CCCCOc1c(Br)cc(CC(=O)O)cc1Br`, the concentration for half-maximal inhibition (IC50) in assay [1] was 26300 nM. That is a double-digit micromolar value.

`O=C(O)Cc1cc(Br)c(Oc2ccc(O)c(C(=O)NCCc3ccccn3)c2)c(Br)c1` gave an IC50 in assay [1] of 1150 nM. In the case of `O=C(O)Cc1cc(Cl)c(Oc2ccc(O)c(C(=O)NCc3ccccc3)c2)c(Cl)c1`, the results for the half-inhibitory concentration (IC50) in assay [2] and in assay [1] were 3.47 nM and 126 nM, respectively. Take `O=C(O)Cc1cc(Cl)c(Oc2ccc(O)c(-c3cccc(O)c3)c2)c(Cl)c1`: the half-inhibitory concentration (IC50) in assay [1] was 1170 nM. With `O=C(O)CCc1cc(Br)c(OC2CCCCC2)c(Br)c1`, the IC50 was 191 nM in assay [2] and 457 nM in assay [1]. On the same counts, the results for `CC(C)c1cc(Oc2c(Br)cc3c(c2Br)CC(C(=O)O)N3)ccc1O` (stereo unspecified) are 8.51 nM and 38 nM. The like results for `O=C(O)Cc1cc(Br)c(OC2CCCCC2)c(Br)c1` were, in that order, 776 nM and 2690 nM.

In assay [1], `O=C(O)Cc1cc(Cl)c(Oc2ccc(O)c(-c3ccccc3)c2)c(Cl)c1` showed a half-maximal inhibitory concentration (IC50) of 129 nM. In assay [2], `O=C(O)Cc1cc(Cl)c(Oc2ccc(O)c(-c3cccc(C(F)(F)F)c3)c2)c(Cl)c1` had an IC50 of 0.851 nM. On to `O=C(O)Cc1cc(Br)c(Oc2ccc(O)c(Cc3ccc(C(F)(F)F)cc3)c2)c(Br)c1`, for which the values for the concentration for half-maximal inhibition (IC50) in assay [2] and in assay [1] were 9.55 nM and 339 nM, respectively. `O=C(O)Cc1cc(Cl)c(Oc2ccc(O)c(-c3ccccc3C(F)(F)F)c2)c(Cl)c1` gave an IC50 in assay [2] of 3.24 nM.
